Blank lines part the entries; values can stand above or below the molecule they belong to.
Assays:
Format in all cases: cell-based, human
[1] = system: THP-1 cells; assay: Flow cytometry of HLA-DR, CD11c, CD14, CD40 on PMA-treated THP-1 cells
Method: FIG. 5 is a graph showing the effects of collagen-activation of two DDR1 isoforms on the expression of CD11c, CD14, and CD40. Each cell line was plated at 5×10^6 cells/ml on either uncoated or collagen-coated plates and incubated at 37° C. for 24 hours in the presence of 10 nM PMA. Anti-1β integrin antibody (10 μg/ml) was used to block the effect of 1β integrin-collagen interaction. The percentage of CD11c, CD14, or CD40-positive cells is shown. Data are presented as the mean ±SD from three independent experiments.
Parental, mock, DDR1a-overexpressing, or DDR1b overexpressing THP-1 cells were plated at 5×10^6 cells/ml on either uncoated or collagen-coated plates and incubated at 37° C. for 24 or 48 hours in the presence of 10 nM PMA. One hundred thousand cells were suspended in 50 μl of cold PBS containing 0.1% NaN3, […] BSA and 200 μg/ml human IgG in a Falcon 2052 tube, and incubated for 10 minutes on ice. One μg of mouse monoclonal antibody against CD11c, CD14 CD40, or HLA-DR, or control mouse IgG were added to each tube and the cells were incubated for another 15 minutes on ice. The cells were washed with PBS, and then incubated with 1 μg of FITC-conjugated goat anti-mouse IgG for 15 minutes on ice. At the end of incubation, propidium iodide (PI) (100 μM) was added to each tube. The cells were washed by PBS, and subsequently analyzed by using a FACS scan (Becton Dickinson). Dead cells, determined by the incorporation of PI, were gated out. Results were processed by using the Cellquest software (Becton Dickinson).
The cells were then rinsed three times with RPMI 1640 containing 10% FCS, and incubated either with the p38 MAP kinase inhibitor SB203580, the MEK (MAP or ERK kinase) ½ inhibitor PD98059, or dimethylsulfoxide (DMSO) for 30 minutes, followed by an additional 12 hour incubation in the presence of 10 nM PMA plus collagen. The expression of HLA-DR was analyzed by flow cytometry.

[2] = system: monocyte-derived dendritic cells; assay: Flow cytometry of CD80, CD83, CD86, HLA-DR on monocyte-derived DCs
Method: Human PBMC were isolated from leukapheresis preparations obtained by the Blood Bank, Clinical Center, National Institutes of Health (Bethesda, Md.). The leukocyte-rich preparation was overlaid on Accu-prep in 50 ml tubes and the tubes were centrifuged at 800×g for 20 min at room temperature. PBMC fractions were collected, washed once with PBS at room temperature and twice with complete medium at 4° C. and resuspended in the same medium. Monocytes were further purified by using iso-osmotic Percoll gradient. At this stage, the purity of monocytes was higher than 90%. The cells (5×10^5/ml) were allowed to adhere to the surface of 6-well plates. After a 5 hour incubation at 37° C., non-adherent cells were removed, and remaining adherent cells were subjected to the DC (Baggiolini et al., Adv. Immunol. 55:97-179, 1993). Over 95% of the adherent cells were positive for CD14 by flow cytometry analysis. Monocytes were briefly resuspended at a concentration of 1×10^6 cells/ml and cultured in complete medium containing 50 ng/ml GM-CSF and 50 ng/ml IL-4. Cells were cultured for 7 days, with cytokine added every second day, to obtain a population of immature monocyte-derived dendritic cells (DC). For maturation, immature DC (iDC) were treated with TNF-α (50 ng/ml) from day 5 to day 7. Mouse monoclonal anti-DDR1 antibody (513) (5 μg/ml) was used to specifically activate DDR1. Unrelated mouse monoclonal IgM was used as a control.
Monocytes were plated at a density of 5×10^6 cell/ml and incubated for 5 days in the presence of 50 ng/ml GM-CSF and 50 ng/ml IL-4. Cells were cultured for 7 days, with cytokine added every second day, to obtain a population of immature monocyte-derived DCs. For maturation, iDCs were incubated with TNF-α (50 ng/ml) from day 5 to day 7. For activation of DDR1 on DCs, the cells were incubated in the presence of either agonistic anti-DDR1 IgM (513) or control IgM, and the expression of CD80, CD83, CD86, and HLA-DR was measured using a flow cytometer.
A hundred thousand cells were resuspended in 50 μl of cold PBS containing 0.1% sodium azide, […] bovine serum albumin (BSA) and 200 μg/ml of human IgG, and then incubated for 10 minutes on ice. Subsequently, the cells were incubated with antibodies against CD80, CD83, CD86 or HLA-DR for 15 minutes on ice, and followed by washing with PBS. After washing, cells were incubated with FITC-conjugated goat anti-mouse IgG for 15 minutes on ice. At the end of the incubation, PI was added to 100 μM. Cells were washed by PBS, and subsequently analyzed on a FACscan (Becton Dickinson). Dead cells, determined by their PI-staining, were gated out. Results were processed using CellQuest software (Becton Dickinson). For the experiments of p38 MAP kinase inhibition, iDC were pre-treated with SB203580, or DMSO for 30 minutes, and then cultured with TNF-α alone, TNF-α plus 513 agonistic anti-DDR1 IgM (5 μg/ml), or TNF-α plus control IgM (5 μg/ml). These experiments were repeated with cells from three different donors.

[3] = system: DDR1; assay: DDR1 autophosphorylation and MAP kinase phosphorylation in iDC and mDC; conditions: DCs, TNF-α stimulation
Method: To measure the kinetics of DDR1autophosphorylation, 1×10^7 iDC or TNF-α-induced mDCs were plated on dishes, serum-starved in RPMI 1640 containing 1% FCS for 10 hours, and subsequently activated with agonistic anti-DDR1 IgM (5 μg/ml) or control IgM (5 ug/ml) for varous times. Cell lysates were prepared, DDR1 was immunoprecipitated using anti-DDR1 Ab (C-20), and tyrosine-phosphorylation of DDR1 was analyzed by Western blotting using a mouse monoclonal anti-phosphotyrosine IgG and a sheep anti-mouse IgG coupled with horseradish peroxidase. Peroxidase activity was visualized by the Enhanced Chemiluminescence Detection System (Amersham).
To detect phosphorylation of MAP kinases, ATF2, or MKK3/6, iDC and mDC were activated with agonistic 513 anti-DDR1 IgM or control IgM for varous times. Since TNF-α is known to activate p38 MAP kinase (Ono and Han, Cell. Signal. 12:1-13, 2000), cells were washed 6 times with PBS before activation in order to minimize the effect of TNF-α. Twenty μl of cell lysates were directly mixed with 20 μl of sample buffer and then analyzed.

[4] = iDC pre-treated, TNF-α-induced maturation with agonistic anti-DDR1 IgM or control IgM
[5] = DC maturation induced with TNF-α 50 ng/ml
[6] = DDR1b-overexpressing cells, collagen-coated plates, PMA, 24 hours

Sequence of DDR1 (Q08345 19-417 limits assumed): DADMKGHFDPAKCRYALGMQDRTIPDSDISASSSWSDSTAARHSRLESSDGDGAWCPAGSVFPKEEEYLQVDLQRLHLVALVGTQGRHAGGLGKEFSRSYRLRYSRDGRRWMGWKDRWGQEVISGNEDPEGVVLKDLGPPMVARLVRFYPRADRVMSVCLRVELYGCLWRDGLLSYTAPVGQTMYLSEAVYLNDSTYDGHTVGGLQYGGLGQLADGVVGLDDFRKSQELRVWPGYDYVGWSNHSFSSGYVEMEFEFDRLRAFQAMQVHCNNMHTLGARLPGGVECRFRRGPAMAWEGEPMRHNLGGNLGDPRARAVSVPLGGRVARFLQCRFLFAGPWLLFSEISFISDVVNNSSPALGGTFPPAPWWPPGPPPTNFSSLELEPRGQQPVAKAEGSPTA

Molecule: C[S+]([O-])c1ccc(-c2nc(-c3ccncc3)c(-c3ccc(F)cc3)[nH]2)cc1 (stereo not shown) [SB203580]
expression of HLA-DR ([1]; collagen-activated PMA-treated DDR1b-overexpressing cells, 24 hours): dose-dependently inhibited | expression of CD80 [2, 4]: almost completely inhibited | expression of CD83 [2, 4]: almost completely inhibited | expression of CD86 [2, 4]: almost completely inhibited | expression of HLA-DR [2, 4]: almost completely inhibited

activation of ERK1, ERK2, JNK, MKK3/6 [3]: rapidly activated
Molecule: TNF-α
expression of CD80 [2, 5]: up-regulated | expression of CD83 [2, 5]: up-regulated | expression of CD86 [2, 5]: up-regulated | expression of HLA-DR [2, 5]: up-regulated

Molecule: collagen
cells expressing HLA-DR ([1]; DDR1b-overexpressing cells, collagen-activated, PMA-treated, 12 hours): Approximately 10% | cells expressing HLA-DR ([1]; DDR1b-overexpressing cells, collagen-coated plates, 10 nM PMA, 24 hour): approximately 25% | cells expressing HLA-DR ([1]; DDR1b-overexpressing cells, collagen-coated plates, 10 nM PMA, 48 hour): Approximately 70% | cells expressing CD11c [1, 6]: approximately 53% | cells expressing CD14 [1, 6]: ~35% | cells expressing CD40 [1, 6]: approximately 19%

— patent US7855076B2, “Use of discoidin domain receptor 1 (DDR1) and agents that affect the DDR1/collagen pathway” (The United States of America as represented by the …, priority 2002, dated 2010)
